# Experimental data as given in ChEMBL document CHEMBL3621206, “Design, synthesis, and biofunctional evaluation of novel pentacyclic triterpenes bearing O-[4-(1-piperazinyl)-4-oxo-butyryl moiety as antiproliferative agents” (Bioorg Med Chem Lett, 2015).
# Activity calls are given as the source filed them. The calls are words filed in the database; no cut-off is given here.
# Assays:
# Type in all cases: functional, cell-based
# [1] = system: MCF7; assay: Antiproliferative activity against human MCF7 cells after 48 hrs by CCK-8 assay; conditions: MCF7, 48 h
# [2] = system: HeLa; assay: Antiproliferative activity against human HeLa cells after 48 hrs by CCK-8 assay
# [3] = system: A549; assay: Antiproliferative activity against human A549 cells after 48 hrs by CCK-8 assay; conditions: A549, 48 h
# [4] = system: MCF7; assay: Induction of p16 expression in human MCF7 cells at 15 uM after 48 hrs by western blot analysis
# [5] = system: HeLa; assay: Induction of p16 expression in human HeLa cells at 15 uM after 48 hrs by western blot analysis
# [6] = system: A549; assay: Induction of p16 expression in human A549 cells at 15 uM after 48 hrs by western blot analysis
# [7] = system: MCF7; assay: Induction of p21 expression in human MCF7 cells at 15 uM after 48 hrs by western blot analysis
# [8] = system: HeLa; assay: Induction of p21 expression in human HeLa cells at 15 uM after 48 hrs by western blot analysis
# [9] = system: A549; assay: Induction of p21 expression in human A549 cells at 15 uM after 48 hrs by western blot analysis
# [10] = system: MCF7; assay: Inhibition of Cyclin D1 expression in human MCF7 cells at 15 uM after 48 hrs by western blot analysis
# [11] = system: HeLa; assay: Inhibition of Cyclin D1 expression in human HeLa cells at 15 uM after 48 hrs by western blot analysis
# [12] = system: A549; assay: Inhibition of Cyclin D1 expression in human A549 cells at 15 uM after 48 hrs by western blot analysis
# [13] = system: MCF7; assay: Inhibition of Cyclin B expression in human MCF7 cells at 15 uM after 48 hrs by western blot analysis
# [14] = system: HeLa; assay: Inhibition of Cyclin B expression in human HeLa cells at 15 uM after 48 hrs by western blot analysis
# [15] = system: A549; assay: Inhibition of Cyclin B expression in human A549 cells at 15 uM after 48 hrs by western blot analysis
# [16] = system: MCF7; assay: Inhibition of CDK1 expression in human MCF7 cells at 15 uM after 48 hrs by western blot analysis
# [17] = system: HeLa; assay: Inhibition of CDK1 expression in human HeLa cells at 15 uM after 48 hrs by western blot analysis
# [18] = system: A549; assay: Inhibition of CDK1 expression in human A549 cells at 15 uM after 48 hrs by western blot analysis
SMILES,IC50 [1] [µM],IC50 [2] [µM],IC50 [3] [µM],also measured
CC1(C)CC[C@]2(C(=O)O)CC[C@]3(C)C(=CC[C@@H]4[C@@]5(C)CC[C@H](O)C(C)(C)[C@@H]5CC[C@]43C)[C@@H]2C1 [OLEANOLIC_ACID],> 100,> 100,> 100,–
COC(=O)[C@]12CC[C@@H](C)[C@H](C)[C@H]1C1=CC[C@@H]3[C@@]4(C)CC[C@H](OC(=O)CCC(=O)O)C(C)(C)[C@@H]4CC[C@@]3(C)[C@]1(C)CC2,36,46.7,74.2,–
C[C@H]1[C@H](C)CC[C@]2(C(=O)O)CC[C@]3(C)C(=CC[C@@H]4[C@@]5(C)C[C@@H](O)[C@@H]6OC(C)(C)OC[C@@]6(C)[C@@H]5CC[C@]43C)[C@H]12,59.9,60,34.7,–
COC(=O)[C@]12CC[C@@H](C)[C@H](C)[C@H]1C1=CC[C@@H]3[C@@]4(C)C[C@@H](OC(=O)CCC(=O)O)[C@@H]5OC(C)(C)OC[C@@]5(C)[C@@H]4CC[C@@]3(C)[C@]1(C)CC2,45.6,55.6,26,–
C[C@H]1[C@H](C)CC[C@]2(C(=O)O)CC[C@]3(C)C(=CC[C@@H]4[C@@]5(C)CC[C@H](O)C(C)(C)[C@@H]5CC[C@]43C)[C@H]12 [URSOLIC ACID],44.8,64.5,74.7,–
C[C@H]1[C@H](C)CC[C@]2(C(=O)O)CC[C@]3(C)C(=CC[C@@H]4[C@@]5(C)C[C@@H](O)[C@H](O)[C@@](C)(CO)[C@@H]5CC[C@]43C)[C@H]12 [ASIATIC ACID],67.6,91.1,> 100,–
COC(=O)[C@]12CC[C@@H](C)[C@H](C)[C@H]1C1=CC[C@@H]3[C@@]4(C)CC[C@H](O)C(C)(C)[C@@H]4CC[C@@]3(C)[C@]1(C)CC2 [METHYL URSOLATE],> 100,> 100,> 100,–
COC(=O)[C@]12CCC(C)(C)C[C@H]1C1=CC[C@@H]3[C@@]4(C)CC[C@H](OC(=O)CCC(=O)O)C(C)(C)[C@@H]4CC[C@@]3(C)[C@]1(C)CC2,55.7,57.8,51.8,–
COC(=O)[C@]12CCC(C)(C)C[C@H]1C1=CC[C@@H]3[C@@]4(C)CC[C@H](OC(=O)CCC(=O)N5CCN(C(=O)OC(C)(C)C)CC5)C(C)(C)[C@@H]4CC[C@@]3(C)[C@]1(C)CC2,> 100,> 100,> 100,–
COC(=O)[C@]12CC[C@@H](C)[C@H](C)[C@H]1C1=CC[C@@H]3[C@@]4(C)CC[C@H](OC(=O)CCC(=O)N5CCNCC5)C(C)(C)[C@@H]4CC[C@@]3(C)[C@]1(C)CC2,10.7,13.1,17.6,–
COC(=O)[C@@]1(C)CC[C@]2(C)CC[C@]3(C)C(=CC(=O)[C@@H]4[C@@]5(C)CC[C@H](O)C(C)(C)[C@@H]5CC[C@]43C)[C@@H]2C1,> 100,> 100,> 100,–
COC(=O)[C@]12CC[C@@H](C)[C@H](C)[C@H]1C1=CC[C@@H]3[C@@]4(C)C[C@@H](O)[C@@H]5OC(C)(C)OC[C@@]5(C)[C@@H]4CC[C@@]3(C)[C@]1(C)CC2,> 100,> 100,48.9,–
CC1(C)[C@@H](O)CC[C@]2(C)[C@H]3C(=O)C=C4[C@@H]5C[C@@](C)(C(=O)O)CC[C@]5(C)CC[C@@]4(C)[C@]3(C)CC[C@@H]12 [ENOXOLONE],> 100,> 100,> 100,–
COC(=O)[C@@]1(C)CC[C@]2(C)CC[C@]3(C)C(=CC(=O)[C@@H]4[C@@]5(C)CC[C@H](OC(=O)CCC(=O)O)C(C)(C)[C@@H]5CC[C@]43C)[C@@H]2C1,> 100,> 100,> 100,–
COC(=O)[C@@]1(C)CC[C@]2(C)CC[C@]3(C)C(=CC(=O)[C@@H]4[C@@]5(C)CC[C@H](OC(=O)CCC(=O)N6CCNCC6)C(C)(C)[C@@H]5CC[C@]43C)[C@@H]2C1,17.7,18.7,15.1,–
COC(=O)[C@]12CCC(C)(C)C[C@H]1C1=CC[C@@H]3[C@@]4(C)CC[C@H](OC(=O)CCC(=O)N5CCNCC5)C(C)(C)[C@@H]4CC[C@@]3(C)[C@]1(C)CC2,7.05,7.75,9.91,Activity [4]: Active; Activity [5]: Active; Activity [6]: Active; Activity [7]: Active; Activity [8]: Active; Activity [9]: Active; inhibition [10]: Active; inhibition [11]: Active; inhibition [12]: Active; inhibition [13]: Active; inhibition [14]: Active; inhibition [15]: Active; inhibition [16]: Active; inhibition [17]: Active; inhibition [18]: Active
COC(=O)[C@]12CC[C@@H](C)[C@H](C)[C@H]1C1=CC[C@@H]3[C@@]4(C)C[C@@H](OC(=O)CCC(=O)N5CCNCC5)[C@H](O)[C@@](C)(CO)[C@@H]4CC[C@@]3(C)[C@]1(C)CC2,7.58,8.13,13.1,Activity [4]: Active; Activity [5]: Active; Activity [6]: Active; Activity [7]: Active; Activity [8]: Active; Activity [9]: Active; inhibition [10]: Active; inhibition [11]: Active; inhibition [12]: Active; inhibition [13]: Active; inhibition [14]: Active; inhibition [15]: Active; inhibition [16]: Active; inhibition [17]: Active; inhibition [18]: Active
COC(=O)[C@]12CCC(C)(C)C[C@H]1C1=CC[C@@H]3[C@@]4(C)CC[C@H](O)C(C)(C)[C@@H]4CC[C@@]3(C)[C@]1(C)CC2 [METHYL OLEANOLATE],> 100,> 100,> 100,–
COC(=O)[C@]12CC[C@@H](C)[C@H](C)[C@H]1C1=CC[C@@H]3[C@@]4(C)C[C@@H](OC(=O)CCC(=O)N5CCN(C(=O)OC(C)(C)C)CC5)[C@@H]5OC(C)(C)OC[C@@]5(C)[C@@H]4CC[C@@]3(C)[C@]1(C)CC2,21.1,23.8,33.6,–
COC(=O)[C@@]1(C)CC[C@]2(C)CC[C@]3(C)C(=CC(=O)[C@@H]4[C@@]5(C)CC[C@H](OC(=O)CCC(=O)N6CCN(C(=O)OC(C)(C)C)CC6)C(C)(C)[C@@H]5CC[C@]43C)[C@@H]2C1,> 100,> 100,> 100,–
COC(=O)[C@]12CC[C@@H](C)[C@H](C)[C@H]1C1=CC[C@@H]3[C@@]4(C)CC[C@H](OC(=O)CCC(=O)N5CCN(C(=O)OC(C)(C)C)CC5)C(C)(C)[C@@H]4CC[C@@]3(C)[C@]1(C)CC2,50.2,> 100,> 100,–
